Results as given in patent US5405857A, “3-substituted 1,2,3,4,-oxatriazole-5-imine compounds, a process for the preparation thereof and a pharmaceutical preparation containing said compounds” (A/S GEA Farmaceutisk Fabrik, priority 1991, dated 1995).

Assays:
[1] = tested on: polymorph nuclear leukocytes (PMNs), c-GMP; assay: Stimulation of c-GMP content in PMNs; type: cell-based, human; conditions: 37° C., 10 minutes
Procedure: Compounds according to the invention were tested for their ability to increase the content of cyclic guanosine monophosphate (c-GMP), to inhibit the synthesis of the leukotriene B4 (LTB4), and to inhibit the chemotactical movement of polymorph nuclear leukocytes (PMN). The polymorph nuclear leukocytes play a vital part in the cellular part of the inflammation process. At diseases, such as asthma, the mucuos membrane of the respiratory passages is swollen as a result of an inflammation with a significant infiltration of polymorph nuclear leukocytes (PMN's) in particular. Particularly effective substances for the treatment of asthma are such which in addition to relaxing the musculature in the respiratory passages also have an anti-inflammatory effect on the cellular phase of the inflammatory process, that is inhibiting the leukocyte function.
Isolated human PMNs are incubated at 37° C. for 10 minutes, whereafter the content of cyclic guanosine monophosphate (c-GMP) is measured. Further, the synthesis of the LTB4 is determined after stimulation with Ca-ionophore (A23187) and the chemotaxis (controlled movement) towards FMLP (a substance attracting the polymorph nuclear leukocytes, PMNs) is determined.
Three compounds according to the invention and the reference substance SIN-1 were tested for their ability to stimulate the content of cyclic guanosine monophosphate (c-GMP).

[2] = tested on: blood platelets; assay: Inhibition of blood platelet aggregation (aggregometer, ADP); type: cell-based, human (healthy testees); conditions: Platelet, 0.05 h; human PRP, ADP 2 to 4 μM, 3 min incubation, 37° C.; read-out: IC50 (Inhibition of blood platelet aggregation)
How it was run: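 Citrated human PRP (0.38% sodium citrate final; donors drug-free ≥8 days) preincubated 3 min with test substance at 37 °C under stirring, then ADP 2 to 4 μM added; aggregation followed by light transmission against PPP. IC50 from linear regression of % inhibition vs log concentration.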

SMILES: COc1ccc(Cl)cc1-[n+]1noc([NH-])n1 [Example 20]
- c-GMP in PMNs ([1]; 1 μM): 175 fmole/10^6 cells
- c-GMP in PMNs ([1]; 10 μM): 492 fmole/10^6 cells
- c-GMP in PMNs ([1]; 100 μM): 866 fmole/10^6 cells
- IC50 [2]: 180 nM
